Key:
[1] = system: histamine-induced anaphylactoidal reaction; experiment: Inhibition of histamine-induced anaphylactoid cutaneous reaction in the rat, test substance p.o.; type: in vivo, rat (Sprague-Dawley); details: po, 40 μg histamine intradermally, read-out: ED50 inhibiting effect, histamine-induced anaphylactoidal reaction
Experimental: (§1) 2. Determining the inhibition of passive cutaneous anaphylaxis (PCA) and the inhibition of anaphylactoid cutaneous reactions induced by histamine and by serotonin.
(§2) The determination of the inhibition of passive cutaneous anaphylaxis and the anaphylactoid cutaneous reactions induced by histamine and by serotonin, are carried out, as set forth below, according to the method of Martin and Baggiolini (Naunyn-Schmeiedeberg's Archives of Pharmacology 316 (1981) 186-189).
(§3) For passive sensitizing against ovalbumin, male Sprague-Dawley rates (body weight 150 to 165 g) are injected intradermally on a shaved part of the back with 0.05 ml of a 1:2.5 dilution of antiovalbumin serum, rich in IgE, in physiological sodium chloride solution.
(§4) 24 hours after the sensitizing, solutions of the test substances are administered orally to the rats. For comparison, a control group receives only the solvent.
(§5) To trigger the histamine-induced and serotonin-induced anaphylactoid reactions of the skin, the animals are injected intradermally 30 minutes later on a second shaved part of the back with a solution of 40 μg histamine in 0.05 ml physiological sodium chloride solution and on a third shaved part of the back with a solution of 1 μg serotonin in 0.05 physiological sodium chloride solution.
(§6) Immediately thereafter 1.25 mg (-~8 mg/kg) ovalbumin to trigger the anaphylactic reaction, and 4 mg (-~26.4 mg/kg) of a blue dye dissolved in 0.5 ml phosphate-buffered physiological sodium chloride solution are administered i.v. to the animals.
(§7) After 30 minutes the animals are killed, the skin is removed and in the individual blue patches the quantity of dye contained therein is determined separately. According to the method of Mordelet-Danbrine et al (Therapie 29 (1974) 851-862) the dye is extracted from the individual patches in each case with 2.5 ml dimethylformamide at a temperature of 37° C. for 4 days and the quantity of dye obtained in each case in the extraction solution is determined by spectrophotometric measurement. The doses of the test substances which cause a 50% reduction in the dye concentration compared with the control group are calculated as ED50 values.

[2] = system: peritonal mast cells of rats; experiment: In vitro inhibition of anaphylactically caused histamine release from peritonal mast cells of rats; type: cell-based, rat (Sprague-Dawley); details: Rattus norvegicus, Mast cell; ovalbumin trigger, 1 minute preincubation at 37° C.; read-out: EC50 in vitro inhibiting effect with respect to anaphylactically caused histamine release from mast cells of the rat
Experimental: 3. Determining the inhibiting effect in vitro on the release of histamine, caused anaphylactically, from peritonal mast cells of rats.
In order to obtain the peritonal mast cells, Sprague-Dawley rats are killed by inhalation of ether and immediately after cessation of breathing has occurred, 15 ml of a cold solution of 1 mg/ml human serum albumin in phosphate-buffered sodium chloride solution are injected into the abdominal cavity. The peritonal fluid is then removed and the mast cells are separated therefrom by centrifuging and are suspended in phosphate-buffered sodium chloride solution, whereafter the suspension is adjusted to a mast cell concentration of 5×10^5 per ml.
The mast cell suspension, divided up into samples each of 100 μl, is introduced into test-tubes and each sample, for passive sensitizing, is mixed with 100 μl of a 1:10 dilution of IgE-rich antiovalbumin serum in physiological sodium chloride solution (prepared according to the method described above) and is incubated for 30 minutes at a temperature of 37° C. (water bath). For the removal of unbonded IgE, the mast cells are then washed with 2 ml phosphate-buffered sodium chloride solution, centrifuged, and the supernatant fluid is discarded. Then the mast cells are incubated for 1 minute at 37° C. with 200 μl of a solution of the test substance in phosphate-buffered sodium chloride solution. A control group is only incubated with the same quantity of phosphate-buffered sodium chloride solution which is free of test substance.
After an incubation period of 3 minutes at 37° C., the reaction is stopped by rapid cooling in an ice bath. Then centrifuging takes place, the supernatant fluid is decanted and the histamine content therein is determined directly, without further extraction, spectrofluorimetrically according to the method of Shore (J. Pharmac. Exp. Ther. 127 (1959) 182-186).
For the extraction of the residual histamine still contained in the mast cells of the undecanted material, the latter is mixed with 2 ml phosphate-buffered sodium chloride solution and the suspension is heated in a boiling water bath. Then centrifuging takes place, the supernatant fluid is decanted and therein the residual histamine extracted from the mast cells is determined spectrofluorimetrically.
For each sample, the quantity of the released histamine is calculated as percentage proportion of the overall quantity of histamine (=total of released histamine and residual histamine retained in the mast cells).
The EC50 values are calculated to be those molar concentrations of the test substances in the respective test solutions which produce a 50% inhibition of the histamine release compared to the control group.

[3] = system: passive cutaneous anaphylaxis; experiment: Inhibition of passive cutaneous anaphylaxis (PCA) in the rat, test substance p.o.; type: in vivo, rat (Sprague-Dawley); details: po, 50% reduction in dye concentration vs control, read-out: ED50 inhibiting effect, passive cutaneous anaphylaxy
Experimental: as §1
For the preparation of an antiovalbumin serum, rich in IgE, which is used in the test, according to the method of Lehrer et al (J. Immunol. 116, (1976) 178-182) and Pauwels et al (Ann. Immunol. 230C., (1979), 49-58), Sprague-Dawley rats are sensitized by i.p. injection of 1 mg ovalbumin and 1 ml Bordetella pertussis suspension (vaxicoq, Merieux 3×10^10 organisms/ml). After 20 days the animals are given an injection of 10 mg ovalbumin in the same way, but without any additive. After a further 4 days, blood is removed from the animals and the blood is centrifuged. The antiserum thus obtained is stored at -20° C. and adjusted according to the method of Goose et al (Immunology 16 (1968) 749-760).
as §2, §3, §4, §6, §7

[4] = system: serotonin induced anaphylactoidal reaction; experiment: Inhibition of serotonin-induced anaphylactoid cutaneous reaction in the rat, test substance p.o.; type: in vivo, rat (Sprague-Dawley); details: po, 1 μg serotonin intradermally, read-out: ED50 inhibiting effect, serotonin induced anaphylactoidal reaction
Experimental: as §1, §2, §3, §4, §5, §6, §7

[5] = system: carrageenin edema of the paw; experiment: Inhibition of carrageenin paw edema in the rat; type: in vivo, rat (Wistar); details: po, 100 mg/kg p.o., 3 hours after irritant, read-out: % Inhibition of carageenin paw edema in the rat
Experimental: Description of the test method to determine the inhibiting effect on the carrageenin edema of the paw in the rats according to the method of Winter et al (Proc. Soc. Exp. Biol. Med. 111 (1962) 544-547).
Male Wistar rates with a body weight of approximately 120 to 140 g are used. A dose of 100 mg/kg of the test substance suspended in a volume of 0.5 ml per 100 g body weight of a 1% methyl cellulose solution Tylose®, American Hoechst Corp., Somerville, NJ) is administered per os.
Only the Tylose® solution is administered to a control group. One hour later, to initiate the inflammation, 0.1 ml of a 1% suspension of carageenin (Satiagum® E) in an isotonic solution of sodium chloride are administered as an irritant by intraplantar injection into the right rear paw. An identical volume of isotonic sodium chloride solution is injected into the left rear paw. Both before and also 3 hours after the administration of the irritant, the volume of the individual rat paws is measured plethysmometrically and the volume of swelling of the paw after administration of carrageenin is determined compared with the paw which was only treated with sodium chloride solution. The inhibition of edema formation brought about by the test substances in the treated animals is indicated in percentage compared with the animals of the untreated control group.

[6] = Acute 8-day toxicity, single i.p. application to male mice (LD50); details: in vivo, ip, mouse i.p., 8 days
Experimental: The acute 8-day toxicity is determined after a single application i.p. to male mice (body weight 18 to 22 g). The mortality is noted for 8 days. The results are calculated as LD50 values, i.e. the dose which kills 50% of the animals.

SMILES	ED50 [1] [mg/kg]	EC50 [2] [µM]	ED50 [3] [mg/kg]	ED50 [4] [mg/kg]	inhibition in vivo at 100 mg/kg [5] [%]	LD50 at 192 h [6] [mg/kg]
CCc1cc(=O)n(CCCN2CCN(c3ccc(F)cc3)CC2)n1-c1ccccc1 [Example 1, 5-ethyl-1-phenyl-2-{3-[4-(4-fluorophenyl)-piperazin-1-yl]-propyl}-pyrazolin-3-one]	4.7	50	2.5	2.6	52.8	117
Cc1cc(=O)n(CCCN2CCN(c3ccc(F)cc3)CC2)n1-c1ccccc1 [Example 8]	–	–	–	–	56.4	–
CCCc1cc(=O)n(CCCN2CCN(c3ccc(F)cc3)CC2)n1-c1ccccc1 [Example 12]	–	–	–	–	49.5	–
Cc1cc(=O)n(CCCN2CCN(c3ccc(F)cc3)CC2)n1-c1ccc([N+](=O)[O-])cc1 [Example 39]	9.7	–	5.7	2.5	42.6	91.5
CCc1cc(=O)n(CCCN2CCN(c3ccc(F)cc3)CC2)n1-c1ccc([N+](=O)[O-])cc1 [Example 54]	5.46	120	4.45	0.52	45.6	53.3
CC(=O)c1ccc(-n2c(C)cc(=O)n2CCCN2CCN(c3ccc(F)cc3)CC2)cc1 [Example 59]	–	–	–	–	45.7	–
Cc1cc(=O)n(CCCN2CCN(c3ccc(F)cc3)CC2)n1-c1ccc(C#N)cc1 [Example 60]	3.32	200	1.86	2.49	62.4	91.5
Cc1cc(=O)n(CCCN2CCN(c3ccc(F)cc3)CC2)n1-c1ccc(Cl)cc1 [Example 62]	7.04	62	5.47	3.64	63.9	–
O=c1cc(C2CCCC2)n(-c2ccccc2)n1CCCN1CCN(c2ccc(F)cc2)CC1 [Example 63]	–	–	–	–	42.2	–

Reference: patent US4672063A, “Antiallergic 5-alkyl-1-phenyl-2-piperazinoalkylpyrazolin-3-one compounds” (Kali-Chemie Pharma GmbH, priority 1984, dated 1987)
